Reference: patent US7229630B2, “Stabilized formulations of alpha adrenergic receptor antagonists and the uses thereof” (Novalar Pharmaceuticals, Inc., priority 2002, dated 2007)
Where a name gives a salt, the structure may show the parent alone.

How the values were obtained:
human subjects = test: Reversal of local anesthesia (polocaine with levonordefrin) by LARA vs saline, bilateral injection; type: in vivo; conditions: three subjects, 1.6 ml of 0.05 mg/ml phentolamine mesylate
Description: An injection of the physiological saline vehicle (without phentolamine mesylate) served as the control. […] This was followed by injection of the phentolamine mesylate containing local anesthetic reversal agent (LARA) into one side of the oral cavity, and injection of the saline vehicle (control) solution into the opposite side of the oral cavity. The time to reversal of the local anesthetic effect on both sides was then recorded to determine whether there is a difference between the two sides.
The local anesthetic used was 2% polocaine (mepivacaine hydrochloride) with levonordefrin (1:20,000=0.05 mg/ml) (levonordefrin injection, USP) (Astra USA, Inc., Westborough, Mass. 01581). Levonordefrin is a sympathomimetic amine with a pharmacological profile similar to that of epinephrine, but with a lower potency.
Three healthy, male human subjects, age 34–50, volunteered to have local anesthetic injected in the mouth bilaterally under the lip in an easily repeatable location. The exact time of each injection was recorded. The position chosen was above (apical) the prominence of the root of the upper cuspid teeth. This is a common site selected to numb the cuspids, lateral incisors and upper lip. The volume of the local anesthetic injected was 1.7+0.1 ml on each side of the mouth. […]

[1] = Narrow-range pH-stability profiling at 60° C. (HPLC); type: physicochemical; conditions: 50 mM sodium phosphate, zero-order rate constant vs pH
Description: (§1) The drug is monitored at a detection wavelength of 232 nm.
All samples were stored in the dark. […] All samples were analyzed without dilution.
The phosphate buffers were prepared as previously described. […] Measurement of sample pH was done after HPLC analysis.
In order to precisely define the most favorable pH, a stronger stressing condition was needed to generate a greater extent of degradation in the lower pH region. For this study, the incubation condition was shifted from 40° C. to 60° C. […] Since the extent of degradation after fourteen (14) days was still less than twenty percent (20%) in most samples, zero-order rate kinetics was used for the degradation curves (concentration versus time). The calculated rate constant was plotted against pH to provide the narrow-range pH-stability profile.

[2] = Effect of buffer concentration on stability at 60° C. (HPLC, pH); type: physicochemical; conditions: for pH: 60° C.
Description: as §1
Tightly sealed glass vials containing the test solutions were placed in an oven at 40° C. or 60° C. All samples were stored in the dark. Aliquots were removed at designated time points for HPLC analysis and pH measurement. All samples were analyzed without dilution.
In conjunction with HPLC analysis, pH was measured. The measurement was performed using the same samples as used for the HPLC analysis. The pH meter was calibrated using pH 4.00 and 7.00 buffer standards prior to each measurement.
Samples were incubated at 60° C. with scheduled testing performed at day 0, 2, 7, and 14. The various buffer concentrations were prepared by diluting the 50 mM buffer with water and re-examining the pH value to determine if the pH 3.5 was constant. Measurements of pH were performed after HPLC analysis of the samples.

[3] = tested on: healthy adult volunteer subjects; test: Dose range study of reversal of local anesthesia after mandibular nerve block; type: in vivo, human
Source text: The objectives of this study were to evaluate the safety and efficacy of a range of doses of phentolamine in reversing local anesthesia after a mandibular nerve block. […] Subjects palpated their lower lip, chin, tongue, and teeth every five minutes for the next five hours after injections.

[4] = tested on: healthy adult volunteer subjects; test: Dose range study of reversal of local anesthesia after maxillary infiltration; type: in vivo, human
Description: Four groups of eight healthy adult volunteer subjects were given an infiltration of the lateral incisor using one 1.8 ml cartridge of lidocaine 2% with epinephrine 1:100,000. […] Subjects palpated their upper lip, nose, and teeth every five minutes for the next five hours after injections.

[5] = 0 mM sodium acetate (un-buffered) pH 3.5, 60° C., Day 0
[6] = 0 mM sodium acetate (un-buffered) pH 3.5, 60° C., Day 2
[7] = 0 mM sodium acetate (un-buffered) pH 3.5, 60° C., Day 7
[8] = 0 mM sodium acetate (un-buffered) pH 3.5, 60° C., Day 14
[9] = 5 mM sodium acetate pH 3.5, 60° C., Day 0
[10] = 5 mM sodium acetate pH 3.5, 60° C., Day 2
[11] = 5 mM sodium acetate pH 3.5, 60° C., Day 7
[12] = 5 mM sodium acetate pH 3.5, 60° C., Day 14
[13] = 10 mM sodium acetate pH 3.5, 60° C., Day 0
[14] = 10 mM sodium acetate pH 3.5, 60° C., Day 2
[15] = 10 mM sodium acetate pH 3.5, 60° C., Day 7
[16] = 10 mM sodium acetate pH 3.5, 60° C., Day 14
[17] = 50 mM sodium acetate pH 3.5, 60° C., Day 7
[18] = 50 mM sodium acetate pH 3.5, 60° C., Day 14

pH at which most stable [1]: 3.5
Phentolamine Concentration [2, 5]: 90 µg/mL
Phentolamine Purity [2, 5]: 99 % peak area
Phentolamine Concentration [2, 6]: 92 µg/mL
Phentolamine Purity [2, 6]: 99 % peak area
Phentolamine Concentration [2, 7]: 82 µg/mL
Phentolamine Purity [2, 7]: 98 % peak area
Phentolamine Concentration [2, 8]: 77 µg/mL
Phentolamine Purity [2, 8]: 97 % peak area
pH ([2]; 0 mM sodium acetate (un-buffered), Day 0): 3.6
pH ([2]; 0 mM sodium acetate (un-buffered), Day 2): 4.4
pH ([2]; 0 mM sodium acetate (un-buffered), Day 7): 5.1
pH ([2]; 0 mM sodium acetate (un-buffered), Day 14): 5.3
Phentolamine Concentration [2, 9]: 99 µg/mL
Phentolamine Purity [2, 9]: 99 % peak area
Phentolamine Concentration [2, 10]: 97 µg/mL
Phentolamine Purity [2, 10]: 99 % peak area
Phentolamine Concentration [2, 11]: 94 µg/mL
Phentolamine Purity [2, 11]: 98 % peak area
Phentolamine Concentration [2, 12]: 92 µg/mL
Phentolamine Purity [2, 12]: 98 % peak area
pH ([2]; 5 mM sodium acetate, Day 0): 3.5
pH ([2]; 5 mM sodium acetate, Day 2): 3.8
pH ([2]; 5 mM sodium acetate, Day 7): 3.8
pH ([2]; 5 mM sodium acetate, Day 14): 3.8
Phentolamine Concentration [2, 13]: 100 µg/mL
Phentolamine Purity [2, 13]: 99 % peak area
Phentolamine Concentration [2, 14]: 97 µg/mL
Phentolamine Purity [2, 14]: 99 % peak area
Phentolamine Concentration [2, 15]: 96 µg/mL
Phentolamine Purity [2, 15]: 98 % peak area
Phentolamine Concentration [2, 16]: 92 µg/mL
Phentolamine Purity [2, 16]: 98 % peak area
pH ([2]; 10 mM sodium acetate, Day 0): 3.5
pH ([2]; 10 mM sodium acetate, Day 2): 3.7
pH ([2]; 10 mM sodium acetate, Day 7): 3.8
pH ([2]; 10 mM sodium acetate, Day 14): 3.7
Phentolamine Purity ([2]; 50 mM sodium acetate pH 3.5, 60° C., Day 0): 98 % peak area
Phentolamine Purity ([2]; 50 mM sodium acetate pH 3.5, 60° C., Day 2): 98 % peak area
Phentolamine Concentration [2, 17]: 99 µg/mL
Phentolamine Purity [2, 17]: 98 % peak area
Phentolamine Concentration [2, 18]: 96 µg/mL
Phentolamine Purity [2, 18]: 96 % peak area
pH ([2]; 50 mM sodium acetate, Day 0): 3.5
pH ([2]; 50 mM sodium acetate, Day 2): 3.6
pH ([2]; 50 mM sodium acetate, Day 7): 3.6
pH ([2]; 50 mM sodium acetate, Day 14): 3.6
electrocardiogram ([3]; 0.02 mg, 0.06 mg, 0.4 mg in 1.8 ml): no abnormalities
electrocardiogram ([4]; 0.02 mg, 0.08 mg, 0.4 mg in 1.8 ml): no abnormalities
SMILES: Cc1ccc(N(CC2=NCCN2)c2cccc(O)c2)cc1 [Phentolamine Mesylate, phentolamine mesylate]
side-effects (human subjects): no side-effects of any kind were noted
rate of degradation vs un-buffered control (0 mM) ([2]; 5, 10 and 50 mM sodium acetate, pH 3.5, 60° C.): comparable and was an improvement over the un-buffered control
Adverse events ([3]; 0.02 mg, 0.06 mg, 0.4 mg in 1.8 ml, vs placebo): few and no differences were noted between the active and placebo groups
duration of anesthesia ([3]; all doses tested (0.02 mg, 0.06 mg, 0.4 mg in 1.8 ml), 60 minutes after lidocaine 2% with epinephrine 1:100,000, vs saline, each measured tissue): significantly (p<0.05) reduced
Adverse events ([4]; 0.02 mg, 0.08 mg, 0.4 mg in 1.8 ml, vs placebo): few and no differences were noted between the active and placebo groups
duration of anesthesia ([4]; all doses tested (0.02 mg, 0.08 mg, 0.4 mg in 1.8 ml), 40 minutes after lidocaine 2% with epinephrine 1:100,000, vs saline, each measured tissue): significantly (p<0.01) reduced
